Assay results taken from US20240360122A1, “POLYMORPHIC FORMS AND SALTS OF A GLP-1R AGONIST” (Terns (Suzhou) Biotechnology Co., Ltd., priority 2023, published 2024).
Where a name gives a salt, the structure may show the parent alone.

Key:
Format in all cases: physicochemical
[1] = Kinetic solubility in water and bio-relevant media (SGF, FaSSIF, FeSSIF) at 37° C.; settings: for S: Solubility / FC: Form change: 37° C.; for S: Solubility: calculated by freeform; for FC: Form change: residual solids by XRPD
Experimental: Add 4 mL of medium (H2O, SGF, FaSSIF and FeSSIF). • Rolled at 37° C. (˜25 rpm). Sampling at 1, 2, 4 and 24 hrs. • At each time-point, sampled 0.8 mL of solution or suspension into a centrifuge tube prior to centrifugation (12000 rpm, 37° C., 5 min) and filtration through 0.45 μm PTFE membrane. • Tested pH and concentration for the filtrate. Analyze residual solids by XRPD.
0.1 g of NaCl and 0.05 g of Triton X-100 were weighed into a 50-mL volumetric flask. Purified water was added to dissolve the solid. 67.5 μL HCl (38%, 12M) was added after the solid was dissolved completely. pH was then adjusted to 1.8 using HCl (1 M) or NaOH (1 M). Purified water was added to the volume.
(§1) 0.17 g of anhydrous NaH2PO4, 0.021 g of NaOH and 0.31 g of NaCl were weighed into a 50-mL volumetric flask. ˜48 mL purified water was added to dissolve the solid. pH was adjusted to 6.5 using 1M HCl or 1M NaOH. Purified water was then added to the volume. 0.11 g of SIF powder was added into the volumetric flask.
as §1, with “0.41 mL” for “0.17 g”, “acetic acid, 0.20” for “anhydrous NaH2PO4, 0.021”, “0.59” for “0.31”, “5.0” for “6.5”, “0.56” for “0.11”

[2] = Hygroscopicity by DVS at 25° C.
Experimental: DVS was measured via a SMS (Surface Measurement Systems) DVS Intrinsic. The relative humidity at 25° C. were calibrated against deliquescence point of LiCl, Mg(NO3)2 and KCl.

[3] = Solid state stability at 25° C./60% RH and 40° C./75% RH for 1 week; settings: for HPLC peak Area, RRT 1.00: main peak
Experimental: Each sample was added into a glass vial, sealed by parafilm with several holes, and kept under tested conditions. After one week, samples were taken for XRPD and HPLC purity test.

N#Cc1ccc(COc2cccc(C3CCN(Cc4nc5ccc(C(=O)O)cc5n4Cc4cncs4)CC3)n2)c(F)c1 [Potassium salt Type A]
S: Solubility ([1]; FaSSIF, 1 hr): 24 µg/mL
FC: Form change ([1]; FaSSIF, 1 hr): No
S: Solubility ([1]; FaSSIF, 2 hrs): 21 µg/mL
FC: Form change ([1]; FaSSIF, 2 hrs): No
S: Solubility ([1]; FaSSIF, 4 hrs): 22 µg/mL
FC: Form change ([1]; FaSSIF, 4 hrs): No
S: Solubility ([1]; FaSSIF, 24 hrs): 29 µg/mL
FC: Form change ([1]; FaSSIF, 24 hrs): Yes
S: Solubility ([1]; FeSSIF, 1 hr): 38 µg/mL
FC: Form change ([1]; FeSSIF, 1 hr): No
S: Solubility ([1]; FeSSIF, 2 hrs): 35 µg/mL
FC: Form change ([1]; FeSSIF, 2 hrs): No
S: Solubility ([1]; FeSSIF, 4 hrs): 34 µg/mL
FC: Form change ([1]; FeSSIF, 4 hrs): No
S: Solubility ([1]; FeSSIF, 24 hrs): 21 µg/mL
FC: Form change ([1]; FeSSIF, 24 hrs): Yes
S: Solubility ([1]; H2O, 1 hr): 920 µg/mL
FC: Form change ([1]; H2O, 1 hr): No
S: Solubility ([1]; H2O, 2 hrs): 1700 µg/mL
FC: Form change ([1]; H2O, 2 hrs): Yes
S: Solubility ([1]; H2O, 4 hrs): 3800 µg/mL
FC: Form change ([1]; H2O, 4 hrs): Yes
S: Solubility ([1]; H2O, 24 hrs): 4900 µg/mL
FC: Form change ([1]; H2O, 24 hrs): Yes
S: Solubility ([1]; SGF, 1 hr): 280 µg/mL
FC: Form change ([1]; SGF, 1 hr): Yes
S: Solubility ([1]; SGF, 2 hrs): 69 µg/mL
FC: Form change ([1]; SGF, 2 hrs): Yes
S: Solubility ([1]; SGF, 4 hrs): 39 µg/mL
FC: Form change ([1]; SGF, 4 hrs): Yes
S: Solubility ([1]; SGF, 24 hrs): 50 µg/mL
FC: Form change ([1]; SGF, 24 hrs): Yes
form change of residual solids (XRPD) after solubility test ([1]; all the media (H2O, SGF, FaSSIF, FeSSIF), after 24 hrs): form change was observed
water uptake (DVS) ([2]; 25° C./80% RH): 0.62%
hygroscopicity ([2]; DVS, 25° C.): slightly hygroscopic
Water uptake at 25° C./80% RH ([2]; DVS, 25° C./80% RH): 0.62 wt %
For change after DVS ([2]; XRPD after DVS test): No
form change after DVS test (XRPD) ([2]; after DVS test): no form change
HPLC peak Area, RRT 0.70 ([3]; 25° C./60% RH, 1 week): 0.06%
HPLC peak Area, RRT 0.73 ([3]; 25° C./60% RH, 1 week): 0.15%
HPLC peak Area, RRT 0.83 ([3]; 25° C./60% RH, 1 week): 1.80%
HPLC peak Area, RRT 0.90 ([3]; 25° C./60% RH, 1 week): 0.09%
HPLC peak Area, RRT 0.99 ([3]; 25° C./60% RH, 1 week): 0.06%
HPLC peak Area, RRT 1.05 ([3]; 25° C./60% RH, 1 week): 0.27%
HPLC peak Area, RRT 1.10 ([3]; 25° C./60% RH, 1 week): 0.67%
HPLC peak Area, RRT 1.11 ([3]; 25° C./60% RH, 1 week): 0.05%
HPLC peak Area, RRT 1.12 ([3]; 25° C./60% RH, 1 week): 0.06%
HPLC peak Area, RRT 1.15 ([3]; 25° C./60% RH, 1 week): 0.21%
HPLC peak Area, RRT 1.34 ([3]; 25° C./60% RH, 1 week): 0.10%
HPLC peak Area, RRT 1.00 ([3]; 25° C./60% RH, 1 week): 96.47%
Form change ([3]; 25° C./60% RH/Open/1 week): No
Purity ([3]; 25° C./60% RH/Open/1 week): 96.47 Area %
solid-state stability: form change and purity decrease ([3]; 25° C./60% RH/open and 40° C./75% RH/open, 1 week): no form change or significant purity decrease
HPLC peak Area, RRT 0.70 ([3]; 40° C./75% RH, 1 week): 0.05%
HPLC peak Area, RRT 0.73 ([3]; 40° C./75% RH, 1 week): 0.14%
HPLC peak Area, RRT 0.83 ([3]; 40° C./75% RH, 1 week): 1.78%
HPLC peak Area, RRT 0.90 ([3]; 40° C./75% RH, 1 week): 0.09%
HPLC peak Area, RRT 0.99 ([3]; 40° C./75% RH, 1 week): <0.05%
HPLC peak Area, RRT 1.05 ([3]; 40° C./75% RH, 1 week): 0.28%
HPLC peak Area, RRT 1.10 ([3]; 40° C./75% RH, 1 week): 0.66%
HPLC peak Area, RRT 1.11 ([3]; 40° C./75% RH, 1 week): 0.06%
HPLC peak Area, RRT 1.12 ([3]; 40° C./75% RH, 1 week): 0.06%
HPLC peak Area, RRT 1.15 ([3]; 40° C./75% RH, 1 week): 0.22%
HPLC peak Area, RRT 1.34 ([3]; 40° C./75% RH, 1 week): 0.07%
HPLC peak Area, RRT 1.00 ([3]; 40° C./75% RH, 1 week): 96.58%
Form change ([3]; 40° C./75% RH/Open/1 week): No
Purity ([3]; 40° C./75% RH/Open/1 week): 96.58 Area %
HPLC peak Area, RRT 0.70 ([3]; Initial): 0.05%
HPLC peak Area, RRT 0.73 ([3]; Initial): 0.16%
HPLC peak Area, RRT 0.83 ([3]; Initial): 1.84%
HPLC peak Area, RRT 0.90 ([3]; Initial): 0.09%
HPLC peak Area, RRT 0.99 ([3]; Initial): 0.05%
HPLC peak Area, RRT 1.05 ([3]; Initial): 0.27%
HPLC peak Area, RRT 1.10 ([3]; Initial): 0.70%
HPLC peak Area, RRT 1.11 ([3]; Initial): 0.05%
HPLC peak Area, RRT 1.12 ([3]; Initial): 0.06%
HPLC peak Area, RRT 1.15 ([3]; Initial): 0.22%
HPLC peak Area, RRT 1.34 ([3]; Initial): 0.10%
Purity ([3]; Initial): 96.41 Area %
HPLC peak Area, RRT 1.00 ([3]; Initial): 96.41%
